The values below come from article PMC8882856, “The affinity and selectivity of α‐adrenoceptor antagonists, antidepressants and antipsychotics for the human α2A, α2B, and α2C‐adrenoceptors and comparison with human α1 and β‐adrenoceptors” (Pharmacology Research & Perspectives, 2022).

Entries after “also recorded” stand apart in the source; their conditions may differ. Like-named read-outs stand apart in the source and are kept apart here.

Assay [1] addresses human β2‐adrenoceptor (Homo sapiens, UniProt P07550). It counts as binding.
Assay [2] addresses T1, human α2A‐adrenoceptor (Homo sapiens, UniProt P08913).
T1 sequence (P08913 1-465): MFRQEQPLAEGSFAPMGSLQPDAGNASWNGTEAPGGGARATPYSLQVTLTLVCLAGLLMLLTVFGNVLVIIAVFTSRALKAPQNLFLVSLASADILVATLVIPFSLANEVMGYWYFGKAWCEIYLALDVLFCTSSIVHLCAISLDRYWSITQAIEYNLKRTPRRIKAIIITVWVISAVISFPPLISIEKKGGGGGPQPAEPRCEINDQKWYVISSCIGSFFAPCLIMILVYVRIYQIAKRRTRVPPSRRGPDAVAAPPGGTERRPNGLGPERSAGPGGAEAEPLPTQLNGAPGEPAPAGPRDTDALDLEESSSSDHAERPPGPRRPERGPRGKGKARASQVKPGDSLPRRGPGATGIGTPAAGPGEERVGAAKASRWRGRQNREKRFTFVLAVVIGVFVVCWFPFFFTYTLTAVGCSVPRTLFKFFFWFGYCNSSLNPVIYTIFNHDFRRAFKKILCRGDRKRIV

The target in assay [3] is T2, human α2B‐adrenoceptor (Homo sapiens, UniProt P18089).
T2 sequence (P18089 1-450): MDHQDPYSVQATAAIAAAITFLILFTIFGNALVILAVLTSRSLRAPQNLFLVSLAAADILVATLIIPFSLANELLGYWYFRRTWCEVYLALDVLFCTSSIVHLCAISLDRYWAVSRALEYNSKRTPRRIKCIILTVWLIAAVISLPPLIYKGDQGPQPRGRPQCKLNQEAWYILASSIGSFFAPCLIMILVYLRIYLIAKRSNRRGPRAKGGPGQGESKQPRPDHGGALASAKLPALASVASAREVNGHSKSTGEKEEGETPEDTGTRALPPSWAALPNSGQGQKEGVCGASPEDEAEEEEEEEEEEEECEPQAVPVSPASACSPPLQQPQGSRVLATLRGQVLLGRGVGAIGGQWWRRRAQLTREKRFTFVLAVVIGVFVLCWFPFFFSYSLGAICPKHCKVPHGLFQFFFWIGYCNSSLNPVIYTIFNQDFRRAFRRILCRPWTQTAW

The target in assay [4] is T3, human α2C‐adrenoceptor (Homo sapiens, UniProt P18825).
T3 sequence (P18825 1-462): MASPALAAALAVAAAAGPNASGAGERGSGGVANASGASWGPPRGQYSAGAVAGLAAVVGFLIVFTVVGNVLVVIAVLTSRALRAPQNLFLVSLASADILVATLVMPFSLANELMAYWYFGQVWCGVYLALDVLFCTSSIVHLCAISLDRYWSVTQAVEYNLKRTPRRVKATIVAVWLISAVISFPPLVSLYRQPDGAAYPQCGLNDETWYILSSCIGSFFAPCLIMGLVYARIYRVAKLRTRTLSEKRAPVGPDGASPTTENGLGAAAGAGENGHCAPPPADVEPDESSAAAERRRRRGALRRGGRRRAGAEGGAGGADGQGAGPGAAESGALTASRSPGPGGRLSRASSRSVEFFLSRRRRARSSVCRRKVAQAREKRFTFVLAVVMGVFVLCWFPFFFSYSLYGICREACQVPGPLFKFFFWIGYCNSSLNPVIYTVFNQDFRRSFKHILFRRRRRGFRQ

In assay [5] the target is T4, human β1‐adrenoceptor (Homo sapiens, UniProt P08588).
T4 sequence (P08588 whole entry): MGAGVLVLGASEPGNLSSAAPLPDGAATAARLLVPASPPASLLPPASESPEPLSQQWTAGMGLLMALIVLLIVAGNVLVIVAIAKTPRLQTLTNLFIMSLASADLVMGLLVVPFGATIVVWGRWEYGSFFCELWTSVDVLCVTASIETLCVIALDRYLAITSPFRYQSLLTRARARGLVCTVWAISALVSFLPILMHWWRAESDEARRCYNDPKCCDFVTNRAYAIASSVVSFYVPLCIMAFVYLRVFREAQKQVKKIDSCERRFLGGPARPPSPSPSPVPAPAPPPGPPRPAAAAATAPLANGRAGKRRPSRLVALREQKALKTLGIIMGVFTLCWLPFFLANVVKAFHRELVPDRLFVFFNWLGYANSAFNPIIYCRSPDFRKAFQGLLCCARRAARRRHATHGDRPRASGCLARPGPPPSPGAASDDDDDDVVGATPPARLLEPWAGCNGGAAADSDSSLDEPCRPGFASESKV
The target in assay [6] is T1, human α2A‐adrenoceptor. As to the kind of experiment: ^3H‐RX821002 whole cell competition binding, CHO‐α2A cells. Particulars: ^3H‐RX821002 as radioligand; living CHO cells; log values, mean ± s.e.mean; ^app = apparent KD from extrapolated curve.
Assay [7] concerns the target T2, human α2B‐adrenoceptor. As to the kind of experiment: ^3H‐RX821002 whole cell competition binding, CHO‐α2B cells.
For assay [8], the target named is T3, human α2C‐adrenoceptor. As to the kind of experiment: ^3H‐RX821002 whole cell competition binding, CHO‐α2C cells. The conditions noted are these: ^3H‐RX821002 as radioligand; living CHO cells; log values, mean ± s.e.mean.
Assay [9] addresses T1, human α2A‐adrenoceptor. As to the kind of experiment: ^3H‐rauwolscine whole cell competition binding, CHO‐α2A cells.
In assay [10] the target is T3, human α2C‐adrenoceptor. As to the kind of experiment: ^3H‐rauwolscine whole cell competition binding, CHO‐α2C cells.
Assay [11] deals with T2, human α2B‐adrenoceptor. As to the kind of experiment: ^3H‐rauwolscine whole cell competition binding, CHO‐α2B cells.
Assay [12] relates to human α1A‐adrenoceptor. The assay can be described thus: whole cell binding at α1A‐adrenoceptor, identical technique, previous study [33].
The target of assay [13] is T1, human α2A‐adrenoceptor. As to the kind of experiment: cell-based.
Assay [14] addresses T3, human α2C‐adrenoceptor. As to the kind of experiment: cell-based.
Assay [15] has as its target T4, human β1‐adrenoceptor. The assay can be described thus: cell-based.
Assay [16] has as its system human α2‐adrenoceptors. As to the kind of experiment: ^3H‐rauwolscine whole cell binding, α2‐adrenoceptors stated without subtype. The conditions noted are these: across α2 subtypes, this study; read-out: affinity for the α2‐adrenoceptors.
Assay [17] concerns the target human α1A‐adrenoceptor. Also on record: method as in PMID 32608144. The conditions noted are these: identical whole cell method; ref [33]; read-out: α1A‐adrenoceptor affinity; cited from earlier work.
In assay [18] the target is human α2A‐adrenoceptors. The conditions noted are these: read-out: α2A affinity, cited from earlier work.
Assay [19] addresses human α2C‐adrenoceptors. The conditions noted are these: read-out: α2C affinity, cited from earlier work.
The mark [20] stands for this setting: ^3H‐CGP12177 whole cell binding, log values, mean ± s.e.mean, ^app = apparent KD, 'no binding to' = log top concentration.
Where [21] appears, read: ^3H‐RX821002 as radioligand, living CHO cells, log values, mean ± s.e.mean, ^app = apparent KD.
The mark [22] stands for this setting: ^3H‐RX821002 membrane binding, human receptors expressed in mouse cells, ref [30].
The mark [23] stands for this setting: ^3H‐rauwloscine membrane binding, human receptors expressed in COS cells, ref [28].

Chain of human β2‐adrenoceptor (P07550 whole entry): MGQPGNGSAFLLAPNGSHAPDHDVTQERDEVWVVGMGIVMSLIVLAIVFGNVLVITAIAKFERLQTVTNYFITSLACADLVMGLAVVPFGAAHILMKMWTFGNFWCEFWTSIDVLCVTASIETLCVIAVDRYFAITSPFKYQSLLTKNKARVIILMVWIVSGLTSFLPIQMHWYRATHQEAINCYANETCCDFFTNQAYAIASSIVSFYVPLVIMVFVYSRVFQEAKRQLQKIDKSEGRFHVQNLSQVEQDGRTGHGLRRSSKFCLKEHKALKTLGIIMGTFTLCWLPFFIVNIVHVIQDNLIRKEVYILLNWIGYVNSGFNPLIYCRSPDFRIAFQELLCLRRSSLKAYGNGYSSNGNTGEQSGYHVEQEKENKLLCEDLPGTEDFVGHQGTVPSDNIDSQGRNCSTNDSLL

As to `COC1(C2=NCCN2)COc2ccccc2O1` (centres unmarked) [RX821002], in [1] (setting [20]), the “Log KD β2” value is −3.95 ± 0.11^app. Besides, the Kd was 7.94 nM in assay [2], 35.5 nM in assay [3] and 7.24 nM in assay [4]. Moreover, the “Log KD β1” value in assay [5] (setting [20]) was −4.55 ± 0.05. In addition, in [6], the “Log KD α2A” value is on record as −8.23 ± 0.02. Moreover, the “Log KD α2B” value in [7] (setting [21]) is −7.67 ± 0.04. For the same molecule, the “Log KD α2C” value in assay [8] is recorded as −8.28 ± 0.07. Besides, in [9] (ratio of KD values), the “Selectivity ratio α2A vs α2B (higher affinity for α2A)” value was determined as 4.5. Also, the “Selectivity ratio α2A vs α2C (higher affinity for α2C)” value (from here on “Selectivity ratio α2A vs α2C”) in [10] (ratio of KD values) was determined as 1.1. Also, the “Selectivity ratio α2B vs α2C (higher affinity for α2C)” value (shortened to “Selectivity ratio α2B vs α2C”) in assay [10] (ratio of KD values) is on record as 4.9.

In the case of `COc1cccc(OC)c1OCCNCC1COc2ccccc2O1` (centres unmarked) [WB4104], in [1] (^3H‐CGP12177, log value), the “IC50 (log) β2, IC50>top concentration used” value was “IC50>−4”. In addition, the “IC50 (log) β1, IC50>top concentration used” value in assay [5] (^3H‐CGP12177, log value) is recorded as “IC50>−4”. Further, the “Log KD α2A” value in [6] is given as −7.58 ± 0.05; in assay [9], −7.55 ± 0.05. Further, the entries for the “Log KD α2B” value in assay [7] and in assay [11] were −6.88 ± 0.05 and −6.77 ± 0.05, respectively. Also, the “Log KD α2C” value in assay [8] is listed as −8.24 ± 0.13; in assay [10] it was −8.17 ± 0.05. Moreover, in assay [9], the “Selectivity ratio α2A vs α2B (higher affinity for α2A)” value came out at 6.0. The “Selectivity ratio α2A vs α2C” value in assay [10] was 4.2. Moreover, in assay [10], the “Selectivity ratio α2B vs α2C” value amounted to 25.1.

As for `CN1CC[C@]2(CCN3CCc4c(oc5ccccc45)[C@@H]3C2)N(C)C1=O` [MK‐912], in assay [1], the “IC50 (log) β2, IC50>top concentration used” value is recorded as “IC50>−4”. This molecule also showed a Kd in [3] of 6.92 nM. Besides, the “IC50 (log) β1, IC50>top concentration used” value in assay [5] is recorded as “IC50>−4”. Besides, the “Log KD α2A” value in assay [6] was −8.76 ± 0.05. Further, in assay [7] (setting [21]), the “Log KD α2B” value is −8.23 ± 0.11. Besides, the “Log KD α2C” value in assay [8] was −10.00 ± 0.15. In assay [9], the “Log KD α2A” value is listed as −8.71 ± 0.05 and the “Selectivity ratio α2A vs α2B (higher affinity for α2A)” value came out at 3.6. In assay [10], the “Log KD α2C” value is −9.82 ± 0.11, the “Selectivity ratio α2A vs α2C” value came out at 12.9, the “Selectivity ratio α2B vs α2C” value stood at 45.7 and the “selectivity for α2C over α2A” value amounted to 13 fold. The “selectivity for α2C over α2B” value in assay [10] came out at 46 fold. Moreover, in assay [10] (read-out: α2C‐affinity), the Kd was 0.15 nM.

For `COc1ccccc1N1CCN(CC(O)COc2cccc3ccccc23)CC1` (centres unmarked) [naftapidil], the Kd was 35.5 nM in assay [1] (^3H‐CGP12177 whole cell binding, log values, mean ± s.e.mean, ^app = apparent KD, 'no binding to' = log top concentration, read-out: Log KD β2 (converted)); approximately 30 nM in assay [1] (this study, read-out: β2‐adrenoceptor affinity); 282 nM in assay [13]; 67.6 nM in [14]; 1070 nM in assay [15]; 251 nM in assay [11]. Also, in assay [12], the “α1A‐affinity greater than β2‐affinity” value came to 3 fold. In addition, the “Selectivity ratio α2A vs α2B (higher affinity for α2B)” value in [11] (ratio of KD values) is 1.1. Further, the “Selectivity ratio α2A vs α2C” value in assay [10] (ratio of KD values) amounted to 4.2. For the same molecule, the “Selectivity ratio α2B vs α2C” value in [10] (ratio of KD values) came out at 3.7.

Regarding `CCN1CCCC1CNC(=O)c1cc(S(=O)(=O)CC)c(N)cc1OC` (centres unmarked) [amisulpiride], the “Log KD β2” value in [1] was “No binding to −4; also recorded: No binding to -4”. Moreover, the Kd in [16] was more than 1000 nM. Further, in assay [5], the “Log KD β1” value is on record as “No binding to −4; also recorded: No binding to -4”. Moreover, in assay [9], the “Log KD α2A” value is −5.11 ± 0.09^app and the “Selectivity ratio α2A vs α2B (higher affinity for α2A)” value turned out to be 2.6. Moreover, the “Log KD α2B” value in [11] is given as −4.69 ± 0.13^app. Moreover, in assay [10], the “Log KD α2C” value is recorded as −5.57 ± 0.07, the “Selectivity ratio α2A vs α2C” value is 2.9 and the “Selectivity ratio α2B vs α2C” value came to 7.6.

For the molecule `CN(C)CCCN1c2ccccc2Sc2ccc(Cl)cc21` [chlorpromazine], the Kd in [17] was 1 nM; in assay [18] (^3H‐RX821002 membrane binding to human platelets, ref [23]), 2240 nM; in assay [18] (^3H‐RX821002 membrane binding, human receptors expressed in CHO cells, ref [29]), 600 nM; in assay [18] (setting [22]), 1010 nM; in [18] (setting [23]), 78 nM; in assay [19] (setting [22]), 85 nM. In [19] (setting [23]), the Kd was 41 nM.
